Experiments:
ABUTH = assay: Pre-emergence herbicidal activity on ABUTH (velvetleaf); format: in vivo, Abutilon theophrasti; conditions: racemic mixture vs enantiomers test; rates tested 1000, 650, 300, 200, 100, 65, 30 and 10 g/ha; lowest rate with 80% or greater inhibition
Outline: (§1)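 Whole-plant pre-emergence assay: compound diluted into 50:50 acetone:water and applied over covered seeds in sterilized soil. Growth at 30/21 °C under mist/subirrigation; inhibition vs untreated at ~14 days, reported as GR80 over rates to typically 1000 g/ha.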

SOLNI = assay: Pre-emergence herbicidal activity on SOLNI (black nightshade); format: in vivo, Solanum nigrum; conditions: racemic mixture vs enantiomers test; rates tested 1000, 650, 300, 200, 100, 65, 30 and 10 g/ha; lowest rate with 80% or greater inhibition
Outline: as §1

AMARE = assay: Pre-emergence herbicidal activity on AMARE (redroot pigweed); format: in vivo, Amaranthus retroflexus; conditions: racemic mixture vs enantiomers test; rates tested 1000, 650, 300, 200, 100, 65, 30 and 10 g/ha; lowest rate with 80% or greater inhibition
Outline: as §1

DATST = assay: Pre-emergence herbicidal activity on DATST (jimsonweed); format: in vivo, Datura stramonium; conditions: racemic mixture vs enantiomers test; rates tested 1000, 650, 300, 200, 100, 65, 30 and 10 g/ha; lowest rate with 80% or greater inhibition
Outline: as §1

CHEAL = assay: Pre-emergence herbicidal activity on CHEAL (common lambsquarters); format: in vivo, Chenopodium album; conditions: racemic mixture vs enantiomers test; rates tested 1000, 650, 300, 200, 100, 65, 30 and 10 g/ha; lowest rate with 80% or greater inhibition
Outline: as §1

CONAR = assay: Pre-emergence herbicidal activity on CONAR (field bindweed); format: in vivo, Convolvulus arvensis; conditions: racemic mixture vs enantiomers test; rates tested 1000, 650, 300, 200, 100, 65, 30 and 10 g/ha; lowest rate with 80% or greater inhibition
Outline: as §1

POROL = assay: Pre-emergence herbicidal activity on POROL (common purslane); format: in vivo, Portulaca oleracea; conditions: racemic mixture vs enantiomers test; rates tested 1000, 650, 300, 200, 100, 65, 30 and 10 g/ha; lowest rate with 80% or greater inhibition
Outline: as §1

CIRAR = assay: Pre-emergence herbicidal activity on CIRAR (canada thistle, seedling); format: in vivo, Cirsium arvense; conditions: racemic mixture vs enantiomers test; rates tested 1000, 650, 300, 200, 100, 65, 30 and 10 g/ha; lowest rate with 80% or greater inhibition
Outline: as §1

ECHCG = assay: Pre-emergence herbicidal activity on ECHCG (barnyardgrass); format: in vivo, Echinochloa crus-galli; conditions: racemic mixture vs enantiomers test; rates tested 1000, 650, 300, 200, 100, 65, 30 and 10 g/ha; lowest rate with 80% or greater inhibition
Outline: as §1

PANMI = assay: Pre-emergence herbicidal activity on PANMI (wild proso millet); format: in vivo, Panicum miliaceum; conditions: racemic mixture vs enantiomers test; rates tested 1000, 650, 300, 200, 100, 65, 30 and 10 g/ha; lowest rate with 80% or greater inhibition
Outline: as §1

SORHA = assay: Pre-emergence herbicidal activity on SORHA (johnsongrass, seedling); format: in vivo, Sorghum halepense; conditions: racemic mixture vs enantiomers test; rates tested 1000, 650, 300, 200, 100, 65, 30 and 10 g/ha; lowest rate with 80% or greater inhibition
Outline: as §1

SETFA = assay: Pre-emergence herbicidal activity on SETFA (giant foxtail); format: in vivo, Setaria faberi; conditions: racemic mixture vs enantiomers test; rates tested 1000, 650, 300, 200, 100, 65, 30 and 10 g/ha; lowest rate with 80% or greater inhibition
Outline: as §1

PANDI = assay: Pre-emergence herbicidal activity on PANDI (fall panicum); format: in vivo, Panicum dichotomiflorum; conditions: racemic mixture vs enantiomers test; rates tested 1000, 650, 300, 200, 100, 65, 30 and 10 g/ha; lowest rate with 80% or greater inhibition
Outline: as §1

SORVU = assay: Pre-emergence herbicidal activity on SORVU (shattercane); format: in vivo, Sorghum vulgare; conditions: racemic mixture vs enantiomers test; rates tested 1000, 650, 300, 200, 100, 65, 30 and 10 g/ha; lowest rate with 80% or greater inhibition
Excerpt: All such uses, and the biological activity enabling such uses, are embraced by the term “herbicidal” herein. Tables 15 and 16 summarize results of tests conducted as described below to determine the pre-emergence herbicidal activity, in the form of a GR80 value, of illustrative compounds of this invention. […] Where herbicidal activity was evident but 80% inhibition was not achieved at the highest rate tested (typically 1000 g/ha), an asterisk (*) is shown in the following tables. Herbicidal activity evident in the form of symptoms of phytotoxicity, in the absence of at least 80% inhibition at any rate, is indicated in the tables by “phyto”. A blank cell in the following tables indicates no herbicidal or phytotoxic response at any rate tested.
(§2) The pre-emergence tests were conducted by the following procedure. Topsoil was sieved to pass through a 1.27 cm screen. Fertilizer was added to the topsoil and the mixture was then sterilized by heating. The topsoil mixture was placed in a pot and compacted to a depth of 1.0 to 1.25 cm from the top of the pot. Seeds of each of several monocotyledonous and dicotyledonous annual plant species were placed on top of the soil. Additional soil was subsequently placed over the seeds to level-fill the pot. A known amount of each test compound dissolved or suspended in an appropriate organic solvent was diluted with a 50:50 mix of acetone and water and applied to the surface of the soil. After treatment the plants were placed in a greenhouse with a 30/21° C. day/night temperature regime where they received 0.64 cm of overhead irrigation. All subsequent watering consisted of a light overhead mist and/or subirrigation as needed for germination and growth.
Approximately 14 days after planting and treating, the plants were observed and herbicidal efficacy recorded as percent inhibition by comparison with untreated plants.
The plant species usually regarded as weeds which were utilized in the tests are identified in the tables below according to the following legend, in which “d” indicates a dicotyledonous species and “m” a monocotyledonous species. All monocotyledonous species included in the tests herein are grasses.

BRAPP = assay: Pre-emergence herbicidal activity on BRAPP (broadleaf signalgrass); format: in vivo, Brachiaria platyphylla; conditions: racemic mixture vs enantiomers test; rates tested 1000, 650, 300, 200, 100, 65, 30 and 10 g/ha; lowest rate with 80% or greater inhibition
Outline: as §1

DIGSA = assay: Pre-emergence herbicidal activity on DIGSA (large crabgrass); format: in vivo, Digitaria sanguinalis; conditions: racemic mixture vs enantiomers test; rates tested 1000, 650, 300, 200, 100, 65, 30 and 10 g/ha; lowest rate with 80% or greater inhibition
Outline: as §1

[1] = system: monocotyledonous and dicotyledonous annual plant species; assay: Greenhouse pre-emergence test, all species of the test taken together; format: in vivo; conditions: rates 1000 to 10 g/ha, all species of Tables 19 and 20
Excerpt: All such uses, and the biological activity enabling such uses, are embraced by the term “herbicidal” herein. […] Where herbicidal activity was evident but 80% inhibition was not achieved at the highest rate tested (typically 1000 g/ha), an asterisk (*) is shown in the following tables. Herbicidal activity evident in the form of symptoms of phytotoxicity, in the absence of at least 80% inhibition at any rate, is indicated in the tables by “phyto”. A blank cell in the following tables indicates no herbicidal or phytotoxic response at any rate tested.
as §2
Pre-emergence herbicidal activity of the compound of Example 5, a racemic mixture of R- and S-enantiomers of N,N′-(1,2-propanediylbis)-3-(trifluoromethyl) benzamide, was compared with that of the individual R- and S-enantiomers, the compounds of Examples 5a and 5b respectively. The procedure was exactly as described above. Rates tested were 1000, 650, 300, 200, 100, 65, 30 and 10 g/ha.
In a greenhouse pre-emergence test conducted according to the procedure described hereinabove, R—N,N′-(1,2-propanediylbis)-3-(trifluoromethyl)benzamide (the compound of Example 5a) was applied at 200 g/ha and acetochlor was applied at 100 g/ha, both individually and in combination.
In the same greenhouse pre-emergence test, R-2-fluoro-3-trifluoromethyl-N-[1-methyl-2-(3-trifluoromethyl)phenylcarbonylamino]ethylbenzamide (the compound of Example 13) was applied at 100 g/ha and acetochlor was applied at 100 g/ha, both individually and in combination.

CC(CNC(=O)c1cccc(C(F)(F)F)c1)NC(=O)c1cccc(C(F)(F)F)c1 (centres unmarked) [Example 5b]
[empty]: Pre-emergence activity (GR80) ABUTH (ABUTH) | Pre-emergence activity (GR80) SOLNI (SOLNI) | Pre-emergence activity (GR80) AMARE (AMARE) | Pre-emergence activity (GR80) DATST (DATST) | Pre-emergence activity (GR80) CHEAL (CHEAL) | Pre-emergence activity (GR80) CONAR (CONAR) | Pre-emergence activity (GR80) PORAL (POROL) | Pre-emergence activity (GR80) CIRAR (CIRAR) | Pre-emergence activity (GR80) ECHCG (ECHCG) | Pre-emergence activity (GR80) PANMI (PANMI) | Pre-emergence activity (GR80) SORHA (SORHA) | Pre-emergence activity (GR80) SETFA (SETFA) | Pre-emergence activity (GR80) PANDI (PANDI) | Pre-emergence activity (GR80) SORVU (SORVU) | Pre-emergence activity (GR80) BRAPP (BRAPP) | Pre-emergence activity (GR80) DIGSA (DIGSA)
completely inactive: pre-emergence herbicidal activity (in words) [1]

Reference: patent US20020052295A1, “Diacyl derivatives of propylene diamine having herbicidal activity” (priority 1999, published 2002)
